IC50 data for 20 molecules are collected here from patent US20190322676A1, “CERAMIDE GALACTOSYLTRANSFERASE INHIBITORS FOR THE TREATMENT OF DISEASE” (BioMarin Pharmaceutical Inc., priority 2016, published 2019).

Structures can show the parent of a compound that is named as a salt. Bounds are passed on as bounds.

The assay deals with T1, human CGT (ceramide galactosyltransferase), CHO/CGT lysate (Homo sapiens, UniProt Q16880).
T1 construct: Full-length human CGT cDNA was cloned into the BamH1/Xho1 site of pcDNA3.1 (+); expressed in transfected cells; host or cells: Chinese hamster ovary (CHO) cells; lysate prepared with M-PER
T1 sequence (Q16880 21-541): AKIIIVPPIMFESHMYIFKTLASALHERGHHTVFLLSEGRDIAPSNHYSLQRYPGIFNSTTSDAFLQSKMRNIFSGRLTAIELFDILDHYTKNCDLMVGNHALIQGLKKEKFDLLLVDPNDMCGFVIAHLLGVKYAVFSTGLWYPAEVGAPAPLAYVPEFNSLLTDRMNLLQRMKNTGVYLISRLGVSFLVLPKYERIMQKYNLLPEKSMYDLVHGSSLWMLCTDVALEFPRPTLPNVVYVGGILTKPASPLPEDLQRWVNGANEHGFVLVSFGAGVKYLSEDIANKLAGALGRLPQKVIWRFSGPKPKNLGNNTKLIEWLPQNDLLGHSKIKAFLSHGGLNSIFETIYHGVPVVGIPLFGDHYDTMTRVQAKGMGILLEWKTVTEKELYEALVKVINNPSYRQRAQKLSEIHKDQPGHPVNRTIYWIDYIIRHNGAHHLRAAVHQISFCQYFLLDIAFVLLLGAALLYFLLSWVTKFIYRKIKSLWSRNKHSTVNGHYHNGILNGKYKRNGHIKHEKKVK
Kind of assay: CGT enzyme assay, RapidFire/MS/MS readout with 0.01% Tween added (Table 1 ranges with two asterisks **). In kind it is biochemical. Conditions: CGT enzymatic assay; range with two asterisks (**): RapidFire/MS/MS method with 0.01% Tween added. The gist of the method:
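Lysate (4 μg) of CHO cells transfected with full-length human CGT incubated 1 h at 37 °C with compound (0.001–50 μM) in pH 7.2 HEPES buffer with 10 μM C6-NBD-dihydro-ceramide, 17.5 μM UDP-galactose, Mg2+/Mn2+, CHAPS, BSA, 0.5% DMSO; ** set also contained 0.01% Tween 80. Product quantified by RapidFire/MS/MS, normalized to internal standard; IC50 from sigmoidal variable-slope fits.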
Take `N[C@H]1CCN(C(=O)[C@H](NS(=O)(=O)c2ccc3cc(OC4CCCC4)ccc3c2)C(F)(F)c2ccc(-c3ccc(Cl)cc3)cc2)CC1(F)F` [Compound 161-2, N—((S)-3-((S)-4-amino-3,3-difluoropiperidin-1-yl)-1-(4′-chloro-[1,1′-biphenyl]-4-yl)-1,1-difluoro-3-oxopropan-2-yl)-6-(cyclopentyloxy) naphthalene-2-sulfonamide trifluoroacetate]: the IC50 (as a rule, the midpoint of a concentration-inhibition curve) was 30 to 100 µM. With `N[C@H]1CCN(C(=O)[C@@H](NS(=O)(=O)c2ccc3cc(OC4CCCC4)ccc3c2)C(F)(F)c2ccc(-c3ccc(Cl)cc3)cc2)CC1(F)F` [Compound 161-3, N—((R)-3-((S)-4-amino-3,3-difluoropiperidin-1-yl)-1-(4′-chloro-[1,1′-biphenyl]-4-yl)-1,1-difluoro-3-oxopropan-2-yl)-6-(cyclopentyloxy)naphthalene-2-sulfonamide trifluoroacetate] the figure was below 1 µM; with `N[C@@H]1CCN(C(=O)[C@H](NS(=O)(=O)c2ccc3cc(OC4CCCC4)ccc3c2)C(F)(F)c2ccc(-c3ccc(Cl)cc3)cc2)CC1(F)F` [Compound 161-4, N—((S)-3-((R)-4-amino-3,3-difluoropiperidin-1-yl)-1-(4′-chloro-[1,1′-biphenyl]-4-yl)-1,1-difluoro-3-oxopropan-2-yl)-6-(cyclopentyloxy)naphthalene-2-sulfonamide trifluoroacetate], 1 to 10 µM; with `NC1CCN(C(=O)[C@@H](NS(=O)(=O)c2ccc3cc(OC4CCCC4)ccc3c2)C(F)(F)c2ccc(-c3ccc(Cl)cc3)cn2)CC1` [Compound 162-1, (R)—N-(3-(4-aminopiperidin-1-yl)-1-(5-(4-chlorophenyl)pyridin-2-yl)-1,1-difluoro-3-oxopropan-2-yl)-6-(cyclopentyloxy)naphthalene-2-sulfonamide], 1 to 10 µM. With `NC1CCN(C(=O)[C@H](NS(=O)(=O)c2ccc3cc(OC4CCCC4)ccc3c2)C(F)(F)c2ccc(-c3ccc(Cl)cc3)cn2)CC1` [Compound 162-2, (S)—N-(3-(4-aminopiperidin-1-yl)-1-(5-(4-chlorophenyl)pyridin-2-yl)-1,1-difluoro-3-oxopropan-2-yl)-6-(cyclopentyloxy)naphthalene-2-sulfonamide] the figure was 10 to 30 µM; with `NC1CCN(C(=O)[C@@H](NS(=O)(=O)c2ccc(OCC3CCCCC3)cc2)C(F)(F)c2ccc(-c3ccc(Cl)cc3)cn2)CC1` [Compound 163-1, (R)—N-(3-(4-aminopiperidin-1-yl)-1-(5-(4-chlorophenyl)pyridin-2-yl)-1,1-difluoro-3-oxopropan-2-yl)-4-(cyclohexylmethoxy)benzenesulfonamide], 1 to 10 µM; with `NC1CCN(C(=O)[C@H](NS(=O)(=O)c2ccc(OCC3CCCCC3)cc2)C(F)(F)c2ccc(-c3ccc(Cl)cc3)cn2)CC1` [Compound 163-2, (S)—N-(3-(4-aminopiperidin-1-yl)-1-(5-(4-chlorophenyl)pyridin-2-yl)-1,1-difluoro-3-oxopropan-2-yl)-4-(cyclohexylmethoxy) benzenesulfonamide], 30 to 100 µM.

As to `NC1CCN(C(=O)[C@@H](NS(=O)(=O)c2cc3ccc(OC4CCCC4)cc3s2)C(F)(F)c2ccc(-c3ccc(Cl)cc3)cc2)CC1` [Compound 164-1, (R)—N-(3-(4-aminopiperidin-1-yl)-1-(4′-chloro-[1,1′-biphenyl]-4-yl)-1,1-difluoro-3-oxopropan-2-yl)-6-(cyclopentyloxy)benzo[b]thiophene-2-sulfonamide], the IC50 fell in the range of 1 to 10 µM. Then `NC1CCN(C(=O)[C@H](NS(=O)(=O)c2cc3ccc(OC4CCCC4)cc3s2)C(F)(F)c2ccc(-c3ccc(Cl)cc3)cc2)CC1` [Compound 164-2, (S)—N-(3-(4-aminopiperidin-1-yl)-1-(4′-chloro-[1,1′-biphenyl]-4-yl)-1,1-difluoro-3-oxopropan-2-yl)-6-(cyclopentyloxy)benzo[b]thiophene-2-sulfonamide], with 1 to 10 µM; and `NC1CCN(C(=O)[C@H](NS(=O)(=O)c2ccc(COC3CCCCC3)s2)C(F)(F)c2ccc(-c3ccc(Cl)cc3)cc2)CC1` [Compound 165-1, (S)—N-(3-(4-aminopiperidin-1-yl)-1-(4′-chloro-[1,1′-biphenyl]-4-yl)-1,1-difluoro-3-oxopropan-2-yl)-5-((cyclohexyloxy)methyl)thiophene-2-sulfonamide trifluoroacetate], with 30 to 100 µM; and `NC1CCN(C(=O)[C@@H](NS(=O)(=O)c2ccc(COC3CCCCC3)s2)C(F)(F)c2ccc(-c3ccc(Cl)cc3)cc2)CC1` [Compound 165-2, (R)—N-(3-(4-aminopiperidin-1-yl)-1-(4′-chloro-[1,1′-biphenyl]-4-yl)-1,1-difluoro-3-oxopropan-2-yl)-5-((cyclohexyloxy)methyl)thiophene-2-sulfonamide trifluoroacetate], with 30 to 100 µM. Then `C=C(c1ccc(C(F)(F)[C@H](NS(=O)(=O)c2ccc3cc(OC4CCCC4)ccc3c2)C(=O)N2CCC(N)CC2)cc1)C(F)(F)F` [Compound 166-1, (R)—N-(3-(4-aminopiperidin-1-yl)-1,1-difluoro-3-oxo-1-(4-(3,3,3-trifluoroprop-1-en-2-yl)phenyl)propan-2-yl)-6-(cyclopentyloxy)naphthalene-2-sulfonamide], with 1 to 10 µM; and `C=C(c1ccc(C(F)(F)[C@@H](NS(=O)(=O)c2ccc3cc(OC4CCCC4)ccc3c2)C(=O)N2CCC(N)CC2)cc1)C(F)(F)F` [Compound 166-2, (S)—N-(3-(4-aminopiperidin-1-yl)-1,1-difluoro-3-oxo-1-(4-(3,3,3-trifluoroprop-1-en-2-yl)phenyl)propan-2-yl)-6-(cyclopentyloxy) naphthalene-2-sulfonamide], with 1 to 10 µM; and `NC1CC2CCC(C1)N2C(=O)[C@@H](NS(=O)(=O)c1cc2ccc(OC3CCCC3)cc2s1)C(F)(F)c1ccc(Br)cc1` (stereo partly drawn) [Compound 167-1, N-((2R)-3-(3-amino-8-azabicyclo[3.2.1]octan-8-yl)-1-(4-bromophenyl)-1,1-difluoro-3-oxopropan-2-yl)-6-(cyclopentyloxy)benzo[b]thiophene-2-sulfonamide trifluoroacetate], with 1 to 10 µM.

Molecule `NC1CC2CCC(C1)N2C(=O)[C@H](NS(=O)(=O)c1cc2ccc(OC3CCCC3)cc2s1)C(F)(F)c1ccc(Br)cc1` (some centres unmarked) [Compound 167-2, N-((2 S)-3-(3-amino-8-azabicyclo[3.2.1]octan-8-yl)-1-(4-bromophenyl)-1,1-difluoro-3-oxopropan-2-yl)-6-(cyclopentyloxy)benzo[b]thiophene-2-sulfonamide trifluoroacetate] yielded an IC50 of 1 to 10 µM.

As to `NC1CCN(C(=O)[C@@H](NS(=O)(=O)c2ccc3cc(OC4CCCC4)ccc3c2)C(F)(F)c2ccc(Cl)c(OC3CC3)c2)CC1` [Compound 168-1, (R)—N-(3-(4-aminopiperidin-1-yl)-1-(4-chloro-3-cyclopropoxyphenyl)-1,1-difluoro-3-oxopropan-2-yl)-6-(cyclopentyloxy)naphthalene-2-sulfonamide trifluoroacetate], the IC50 lay in the range of 1 to 10 µM. For the molecule `NC1CCN(C(=O)[C@H](NS(=O)(=O)c2ccc3cc(OC4CCCC4)ccc3c2)C(F)(F)c2ccc(Cl)c(OC3CC3)c2)CC1` [Compound 168-2, (S)—N-(3-(4-aminopiperidin-1-yl)-1-(4-chloro-3-cyclopropoxyphenyl)-1,1-difluoro-3-oxopropan-2-yl)-6-(cyclopentyloxy) naphthalene-2-sulfonamide trifluoroacetate], the IC50 is 10 to 30 µM. Then `CCCOc1cc(C(F)(F)[C@H](NS(=O)(=O)c2ccc3cc(OC4CCCC4)ccc3c2)C(=O)N2CCC(N)CC2)ccc1Cl` [Compound 169-1, (R)—N-(3-(4-aminopiperidin-1-yl)-1-(4-chloro-3-propoxyphenyl)-1,1-difluoro-3-oxopropan-2-yl)-6-(cyclopentyloxy)naphthalene-2-sulfonamide trifluoroacetate], with below 1 µM. With `CCCOc1cc(C(F)(F)[C@@H](NS(=O)(=O)c2ccc3cc(OC4CCCC4)ccc3c2)C(=O)N2CCC(N)CC2)ccc1Cl` [Compound 169-2, (S)—N-(3-(4-aminopiperidin-1-yl)-1-(4-chloro-3-propoxyphenyl)-1,1-difluoro-3-oxopropan-2-yl)-6-(cyclopentyloxy) naphthalene-2-sulfonamide trifluoroacetate] the figure was 1 to 10 µM. With `NC1CCN(C(=O)[C@@H](NS(=O)(=O)c2ccc3cc(OC4CCCC4)ccc3c2)C(F)(F)c2ccc(Cl)c(OC3CCCC3)c2)CC1` [Compound 170-1, (R)—N-(3-(4-aminopiperidin-1-yl)-1-(4-chloro-3-(cyclopentyloxy)phenyl)-1,1-difluoro-3-oxopropan-2-yl)-6-(cyclopentyloxy)naphthalene-2-sulfonamide trifluoroacetate] the figure was 1 to 10 µM.
